Results published in US20230102590A1, “USE OF POLYETHER COMPOUND” (Senju Pharmaceutical Co., Ltd., priority 2020, published 2023).
Read-outs that look alike come from different tables or passages of the source.

Assays:
[1] = Method: Fujifilm Wako Pure Chemical
The poorly soluble compound content in the recovered filtrate was measured by liquid chromatography specified below (Shimadzu (Kyoto), high performance liquid chromatograph Prominence).
As the standard product of triamcinolone acetonide, a reagent from the Pharmaceutical and Medical Device Regulatory Science Society of Japan (Japan) was used. • 50 μL of sample solution and standard solution was measured by liquid chromatography under the following conditions.
Column temperature: constant temperature of about 40° C. Mobile phase A: 0.1% trifluoroacetic acid/10% acetonitrile solution Mobile phase B: 0.1% trifluoroacetic acid/90% acetonitrile solution Delivery of mobile phase: the ratio of mixture of mobile phase A and mobile phase B was changed as follows to control the linear concentration gradient.
Detergent: 50% acetonitrile solution Flow rate: 1.0 mL/min Temperature within autosampler: 5° C.
The following conditions were tested as additives to a poorly soluble compound
wherein SA+B=solubility of a poorly soluble compound in a composition comprising poloxamer 407 and PEG 4000 SB=solubility of a poorly soluble compound in a composition comprising PEG 4000, but not poloxamer 407 SA=solubility of a poorly soluble compound in a composition comprising poloxamer 407, but not PEG 4000 S0=solubility of a poorly soluble compound in a composition that comprises neither poloxamer 407 nor PEG 4000.
The solubility in a composition of PEG and poloxamer was measured in the same manner described above for additional compounds.
For cabozantinib and telmisartan, the pH of the aqueous solution with the base composition described above was changed to 7.4. For rebamipide, the aqueous solution with the base composition was as follow. • 0.05% sodium hydrogen phosphate hydrate • 0.45% sodium dihydrogen phosphate hydrate • sodium hydroxide and hydrochloric acid (suitable amount was added to adjust the pH to 6.0)
Additional compounds were measured in the same manner described above.
Cabozantinib and telmisartan were tested with a solution adjusted to a pH of 7.4. Rebamipide was tested with a solution adjusted to a pH of 6.0. Other compounds were tested with a solution adjusted to a pH of 7.0.

[2] = Basic solubility at 25° C. in ethanol, PEG 400, propylene glycol (PG) and buffer solution; solubility ratio non-aqueous solvent / buffer solution; conditions: for Solubility, Buffer solution: phosphate buffer pH 7.0
Method: In this regard, the buffer solution had the following composition: • 0.2% sodium hydrogen phosphate hydrate • 0.3% sodium dihydrogen phosphate hydrate • sodium hydroxide and hydrochloric acid (suitable amount was added to adjust the pH to 7.0; however, pH was adjusted to 7.4 for cabozantinib and telmisartan).
However, the following composition was used for rebamipide instead: • 0.05% sodium hydrogen phosphate hydrate • 0.45% sodium dihydrogen phosphate hydrate • sodium hydroxide and hydrochloric acid (suitable amount was added to adjust the pH to 6.0).
Each compound was measured in the same manner described above. In the Table, the molecular weight and Log P values are reference values (or values calculated from reference values).

[3] = Stability test: change in pH of poloxamer and/or polyethylene glycol solutions stored at 60° C. for four weeks; conditions: for stabilization of poloxamer 407 or PEG 4000 by the additive alone / concentration of additive able to stabilize PEG 4000 / concentration of additive able to stabilize poloxamer 407: pH change
Method: An additional component was added to an aqueous solution comprising poloxamer and/or polyethylene glycol, and the change in the viscosity and pH was measured over time under harsh conditions of 60° C. The following were used as the poloxamer, polyethylene glycol, and buffer. • Poloxamer 407 (Kolliphor P 407, BASF, Germany) • PEG 4000 (Macrogol 4000, NOF, Tokyo) • Buffer: 0.9% boric acid, 0.1% borax
The pH was adjusted with hydrochloric acid or sodium hydroxide. […] A polyethylene eye drop bottle was filled with 5 mL of each filtrate and stored in a 60° C. thermostatic vessel. The pH and viscosity of the test solutions as of preparation and at four weeks after storage were measured. The viscosity was measured using a rotational viscometer (Toki Sangyo (Osaka) Model TVE-25 viscometer type L, 25° C., 100 rpm). The pH as of the preparation was measured in the test solution before transferring to an eye drop bottle for storage.

[4] = 25° C., buffer pH 7.0 (pH 7.4 for cabozantinib and telmisartan; pH 6.0 for rebamipide)

| Compound | Solubility scale factor at 5° C. 30% PEG 4000/10% poloxamer 407 [1] | Solubility scale factor at 15° C. 30% PEG 4000/10% poloxamer 407 [1] | Solubility ratio of solvent with respect to buffer solution Ethanol/buffer solution [2, 4] | Solubility ratio of solvent with respect to buffer solution PEG400/buffer solution [2, 4] | Solubility ratio of solvent with respect to buffer solution PG/buffer solution [2, 4] | other results |
| --- | --- | --- | --- | --- | --- | --- |
| OC[C@@H](O)[C@@H](O)[C@H](O)[C@H](O)CO [Mannitol] |  |  |  |  |  | stabilization of poloxamer 407 or PEG 4000 by the additive alone ([3]; four weeks at 60° C.): could not stabilize poloxamer 407 or PEG 4000 |
| O=S([O-])[O-].[Na+].[Na+] [sodium sulfite] |  |  |  |  |  | stabilization of poloxamer 407 or PEG 4000 by the additive alone ([3]; four weeks at 60° C.): could not stabilize poloxamer 407 or PEG 4000 |
| CCC(C)n1ncn(-c2ccc(N3CCN(c4ccc(OCC5COC(Cn6cncn6)(c6ccc(Cl)cc6Cl)O5)cc4)CC3)cc2)c1=O (centres unmarked) [Itraconazole] |  |  |  |  |  | Solubility, Buffer solution ([2]; 25° C.): below the detection limit |
| C=C(C)[C@H]1Cc2c(ccc3c2O[C@@H]2COc4cc(OC)c(OC)cc4[C@@H]2C3=O)O1 [Rotenone] |  |  | 30294.14 | 368226.98 | 13159.33 | Solubility, PEG400 ([2]; 25° C.): 3.314%; Solubility, PG (propylene glycol) ([2]; 25° C.): 0.1184% |
| O=S([O-])([O-])=S.[Na+].[Na+] [Sodium thiosulfate] |  |  |  |  |  | concentration of additive able to stabilize PEG 4000 ([3]; four weeks at 60° C.): 0.01%; concentration of additive able to stabilize poloxamer 407 ([3]; four weeks at 60° C.): 0.03% |
| CC1(C)O[C@@H]2C[C@H]3[C@@H]4CCC5=CC(=O)C=C[C@]5(C)[C@H]4[C@@H](O)C[C@]3(C)[C@]2(C(=O)CO)O1 [Desonide] | 7.59 | 6.73 | 270.67 | 143.78 | 174.69 | Solubility, PEG400 ([2]; 25° C.): 1.031%; Solubility, PG (propylene glycol) ([2]; 25° C.): 1.253%; Solubility, Buffer solution ([2]; 25° C.): 0.007171% |
| Cc1ccc(-c2cc(C(F)(F)F)nn2-c2ccc(S(N)(=O)=O)cc2)cc1 [Celecoxib] |  |  |  |  |  | Solubility, Ethanol ([2]; 25° C.): 10.24% |
| Cc1ccc(-c2cc(C(F)(F)F)nn2-c2ccc(S(N)(=O)=O)cc2)cc1 [Cel ? coxib] | 686.99 | 183.33 | 80774.38 | 371931.96 | 28507.07 |  |
| O=C1Nc2ccc(Cl)cc2[C@@](C#CC2CC2)(C(F)(F)F)O1 [Efavir ? nt] | 14.23 | 1.97 | 101607.44 | 96901.18 | 66368.13 |  |
| O=C(O)CN(CCN(CC(=O)O)CC(=O)O)CC(=O)O [EDTA, ethylenediaminetetraacetic acid] |  |  |  |  |  | stabilization effect on low molecular weight PEG 400 ([3]; 0.1% additive): exhibited a stabilization effect; amount of PEG 4000 that the additive was able to stabilize ([3]; 0.1% additive, four weeks at 60° C.): up to 20%; concentration of additive able to stabilize PEG 4000 ([3]; four weeks at 60° C.): ≥ 0.1%; concentration of additive able to stabilize poloxamer 407 ([3]; four weeks at 60° C.): 0.01% |
| O=S([O-])S(=O)(=O)[O-].[Na+].[Na+] [sodium pyrosulfite] |  |  |  |  |  | stabilization of poloxamer 407 or PEG 4000 by the additive alone ([3]; four weeks at 60° C.): could not stabilize poloxamer 407 or PEG 4000 |
| Brc1cccc2c1oc1ccccc12 [4-bromodibenzofuran] |  |  |  |  |  | state of the test composition [1]: converted into gel |
| Brc1cccc2c1oc1ccccc12 [4-bromadibenzofuran] | 793.72 | 1.61 | 426955.49 | 1693721.20 | 106519.51 |  |
| CC1(C)O[C@@H]2C[C@H]3[C@@H]4CCC5=CC(=O)C=C[C@]5(C)[C@@]4(F)[C@@H](O)C[C@]3(C)[C@]2(C(=O)CO)O1 [triamcinolone acetonide] |  |  |  |  |  | Solubility, Buffer solution ([2]; 25° C.): 0.001426% |

Continued, in another order:

| Solubility scale factor at 5° C. 30% PEG 4000/10% poloxamer 407 [1] | Solubility scale factor at 15° C. 30% PEG 4000/10% poloxamer 407 [1] | Solubility ratio of solvent with respect to buffer solution Ethanol/buffer solution [2, 4] | Solubility ratio of solvent with respect to buffer solution PEG400/buffer solution [2, 4] | Solubility ratio of solvent with respect to buffer solution PG/buffer solution [2, 4] | Compound | other results |
| --- | --- | --- | --- | --- | --- | --- |
| 144.99 | 31.62 |  |  |  | Cc1cn(-c2cc(NC(=O)c3ccc(C)c(Nc4nccc(-c5cccnc5)n4)c3)cc(C(F)(F)F)c2)cn1 [Nilotinib] | Solubility ratio of solvent with respect to buffer solution Ethanol/buffer solution [2]: 1623663.73; Solubility ratio of solvent with respect to buffer solution PEG400/buffer solution [2]: 7100339.79; Solubility ratio of solvent with respect to buffer solution PG/buffer solution [2]: 1437221.83 |
| 2355.97 | 450.47 | 4781694.68 | 7210696.23 | 4473505.75 | CNC(=O)c1cc(Oc2ccc(NC(=O)Nc3ccc(Cl)c(C(F)(F)F)c3)cc2)ccn1 [Soraf ? nib] |  |
| 7.45 | 7.10 |  |  |  | C[C@@H]1C[C@H]2[C@@H]3CCC4=CC(=O)C=C[C@]4(C)[C@@]3(F)[C@@H](O)C[C@]2(C)[C@@]1(O)C(=O)CO [dexamethasone] | Solubility, Buffer solution ([2]; 25° C.): 0.008221% |
| 24.46 | 12.41 | 745.67 | 5882.38 | 1401.17 | COC(=O)Nc1nc2cc(C(=O)c3ccc(F)cc3)ccc2[nH]1 [Flubendazole] | Solubility, Ethanol [2]: 0.007308% |
| 15.19 | 14.31 | 309.31 | 1745.29 | 200.23 | COC1=CC(=O)C[C@@H](C)[C@]12Oc1c(Cl)c(OC)cc(OC)c1C2=O [Griseofulvin] | Solubility, Ethanol ([2]; 25° C.): 0.2423%; Solubility, PEG400 ([2]; 25° C.): 1.367%; Solubility, PG (propylene glycol) ([2]; 25° C.): 0.1569%; Solubility, Buffer solution ([2]; 25° C.): 0.0007834% |
| 7.32 | 7.52 | 1043.62 | 876.48 | 680.05 | CC1(C)O[C@@H]2C[C@H]3[C@@H]4CCC5=CC(=O)C=C[C@]5(C)[C@@]4(F)[C@@H](O)C[C@]3(C)[C@]2(C(=O)CO)O1 [Triamsinolone acetonide] |  |
| 182.78 | 114.87 | 2004388.60 | 7691626.26 | 1186517.97 | CNC(=O)c1cc(Oc2ccc(NC(=O)Nc3ccc(Cl)c(C(F)(F)F)c3)c(F)c2)ccn1 [Regorafenib] | Solubility, Buffer solution ([2]; 25° C.): 0.0000004174% |
